Results as given in patent publication US20090111822A1, “1,2,3-TRIAZOLE PYRROLIDINE DERIVATIVES AS MODULATORS OF MGLUR5” (AstraZeneca AB, priority 2007, published 2009).

Experiments:
[1] = Determination of brain to plasma ratio in rat; assay type: in vivo; settings: brain and plasma, female Sprague Dawley rats, drug in brain over drug in plasma, read-out: Brain/Plasma Ratio of compound in Rat
Method: Brain to plasma ratios are estimated in female Sprague Dawley rats. The compound is dissolved in water or another appropriate vehicle. For determination of brain to plasma ratio the compound is administrated as a subcutaneous, or an intravenous bolus injection, or an intravenous infusion, or an oral administration. At a predetermined time point after the administration a blood sample is taken with cardiac puncture. The rat is terminated by cutting the heart open, and the brain is immediately retained. The blood samples are collected in heparinized tubes and centrifuged within 30 minutes, in order to separate the plasma from the blood cells. The plasma is transferred to 96-well plates and stored at −20° C. until analysis. The brains are divided in halt and each half is placed in a pre-tarred tube and stored at −20° C. until analysis. Prior to the analysis, the brain samples are thawed and 3 mL/g brain tissue of distilled water is added to the tubes. The brain samples are sonicated in an ice bath until the samples are homogenized. Both brain and plasma samples are precipitated with acetonitrile. After centrifugation, the supernatant is diluted with 0.2% formic acid. […] After reconstitution of the residuals the samples are ready for injection onto the HPLC column.

human mGluR5d = biological target: T1, human mGluR5d (Homo sapiens, UniProt P41594); assay: FLIPR assay, mGluR5 antagonism (intracellular calcium mobilization); assay type: cell-based; settings: cells expressing human mGluR5d; read-out: FLIPR hmGluR5d
T1 construct: expressed in transfected cells; The culture medium holds Hygromycin B and Zeocin, which points to a stably transfected line
T1 sequence (P41594 21-942 isoform P41594-3 limits assumed): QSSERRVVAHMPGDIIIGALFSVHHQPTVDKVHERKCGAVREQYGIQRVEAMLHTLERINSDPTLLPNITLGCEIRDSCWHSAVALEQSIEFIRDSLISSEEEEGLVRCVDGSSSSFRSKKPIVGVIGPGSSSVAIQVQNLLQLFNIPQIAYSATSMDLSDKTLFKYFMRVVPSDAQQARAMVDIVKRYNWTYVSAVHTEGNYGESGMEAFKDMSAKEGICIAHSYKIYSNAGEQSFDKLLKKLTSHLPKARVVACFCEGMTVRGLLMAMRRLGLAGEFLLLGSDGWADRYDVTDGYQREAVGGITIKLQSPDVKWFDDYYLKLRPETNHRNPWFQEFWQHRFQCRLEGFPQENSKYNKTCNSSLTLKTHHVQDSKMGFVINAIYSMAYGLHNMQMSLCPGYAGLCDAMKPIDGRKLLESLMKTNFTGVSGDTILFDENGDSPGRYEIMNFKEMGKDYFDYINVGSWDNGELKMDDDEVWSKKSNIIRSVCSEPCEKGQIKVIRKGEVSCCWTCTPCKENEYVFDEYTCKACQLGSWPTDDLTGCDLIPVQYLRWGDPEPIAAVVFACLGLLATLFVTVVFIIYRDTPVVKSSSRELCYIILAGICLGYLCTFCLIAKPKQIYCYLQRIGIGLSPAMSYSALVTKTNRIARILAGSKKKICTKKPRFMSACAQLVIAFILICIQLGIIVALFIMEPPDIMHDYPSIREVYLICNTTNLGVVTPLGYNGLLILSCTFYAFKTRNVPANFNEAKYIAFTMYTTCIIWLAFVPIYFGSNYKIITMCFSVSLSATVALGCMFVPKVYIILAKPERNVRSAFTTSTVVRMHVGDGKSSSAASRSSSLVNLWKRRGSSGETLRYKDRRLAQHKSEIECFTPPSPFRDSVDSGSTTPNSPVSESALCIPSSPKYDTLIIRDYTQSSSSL
Text: Functional Assessment of mGluR5 Antagonism in Cell Lines Expressing mGluR5D
The properties of the compounds of the invention can be analyzed using standard assays for pharmacological activity. Examples of glutamate receptor assays are well known in the art as described in for example Aramori et al, Neuron 8:757 (1992), Tanabe et al., Neuron 8:169 (1992), Miller et al., J. Neuroscience 15: 6103 (1995), Balazs, et al., J. Neurochemistry 69:151 (1997). The methodology described in these publications is incorporated herein by reference. […]
Cells expressing human mGluR5d as described in WO97/05252 cultured in a mixture of high glucose DMEM with Glutamax (31966-021) (500 mL), 10% dialyzed fetal bovine serum (Hyclone #SH30079.03) (56 mL), 200 μg/mL Hygromycin B (Invitrogen 45-0430, 50 mg/mL) (2.2 mL), 200 μg/mL Zeocin (Invitrogen #R250-01; 100 mg/mL) (1.1 mL) are seeded at a density of 100,000 cells per well on collagen coated clear bottom 96-well plates with black sides and cells were allowed to adhere over night before experiments. […] The fluorescence signal is sampled 50 times at 1-second intervals followed by 3 samples at 5-second intervals immediately after each of the two additions. Responses are measured as the difference between the peak heights of the response to agonist, less the background fluorescence within the sample period. […]

Row | Kp [1] | IC50 (human mGluR5d) [nM] | SMILES
1 | 0.03 | 58 | Cn1c(-c2ccncc2)nnc1N1CCC[C@@H]1c1cn(-c2cccc(Cl)c2)nn1 [Example 8.1, 4-(5-{(2R)-2-[1-(3-Chlorophenyl)-1H-1,2,3-triazol-4-yl]pyrrolidin-1-yl}-4-methyl-4H-1,2,4-triazol-3-yl)pyridine]
2 | < 0.015 | 116 | Cn1c(-c2cccnc2)nnc1N1CCC[C@@H]1c1cn(-c2cccc(Cl)c2)nn1 [Example 8.2, 3-(5-{(2R)-2-[1-(3-chlorophenyl)-1H-1,2,3-triazol-4-yl]pyrrolidin-1-yl}-4-methyl-4H-1,2,4-triazol-3-yl)pyridine]
